Laboratory results: patent publication US5714491A, “Peptidyl derivatives as metalloproteinase inhibitors” (Celltech Therapeutics Limited, priority 1993, dated 1998)

Assays:
Gelatinase-72KD = molecular target: T1, Gelatinase-72KD (Homo sapiens, UniProt P08253); assay: Enzyme inhibition assay with fluorogenic peptide substrate, gelatinase-72KD; assay type: biochemical; conditions: true Ki from plot of Ki (app) vs. [S]
T1 sequence (P08253 110-660): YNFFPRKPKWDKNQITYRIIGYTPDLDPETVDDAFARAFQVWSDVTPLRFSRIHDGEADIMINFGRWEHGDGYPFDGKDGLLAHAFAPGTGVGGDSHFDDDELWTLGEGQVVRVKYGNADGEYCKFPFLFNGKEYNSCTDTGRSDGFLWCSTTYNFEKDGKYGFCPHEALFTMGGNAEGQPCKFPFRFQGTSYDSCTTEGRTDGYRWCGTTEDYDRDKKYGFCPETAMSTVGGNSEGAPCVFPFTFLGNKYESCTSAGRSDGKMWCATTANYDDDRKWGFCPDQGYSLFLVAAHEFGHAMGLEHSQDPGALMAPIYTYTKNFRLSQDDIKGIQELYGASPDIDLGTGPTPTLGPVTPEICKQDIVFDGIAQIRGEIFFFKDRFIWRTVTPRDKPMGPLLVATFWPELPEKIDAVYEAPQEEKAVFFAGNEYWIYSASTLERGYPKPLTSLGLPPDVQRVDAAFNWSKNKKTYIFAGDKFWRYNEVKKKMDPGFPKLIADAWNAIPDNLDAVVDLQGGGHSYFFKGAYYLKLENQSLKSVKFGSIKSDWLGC
Procedure: (§1) All enzyme assays to determine Ki values were performed using the peptide substrate Dnp-Pro-Leu-Gly-Leu-Trp-Ala-D-Arg-NH2. [M. Sharon Stock and Robert D. Gray, JBC 264, 4277-81, 1989]. The enzymes cleave at the Gly-Leu bond which can be followed fluorimetrically by measuring the increase in Trp fluorescence emission associated with the removal of the quenching dinitrophenol (Dnp) group.
(§2) Essentially, enzyme (e.g. gelatinase, stromelysin, collagenase) at 0.08-2 nM; a range of inhibitor concentrations (0.1-50×Ki) and substrate (approx. 20 μm) are incubated overnight in 0.1M Tris/HCI buffer, pH 7.5, containing 0.1M NaCl, 10 mM CaCl2 and 0.05%. Brij 35 at either room temperature or 37° C. depending on the enzyme. The reaction is stopped by adjusting the pH to 4 using 0.1M sodium acetate buffer and the fluorescence read at an excitation wavelength of 280 nm and emission wavelength of 346 nm.
(§3) Ki values can be established using the equation for tight-binding inhibition: [formula] where VO is the initial rate of reaction in the absence of inhibitor, Vi is the initial rate in the presence of inhibitor, [E] is the total enzyme concentration and [I] the total inhibitor concentration in the reaction mixture.
(§4) For stromelysin and collagenasa, Ki (app) was assumed to approximate to the true Ki as [S]<<Km for the substrate hydrolysis. For gelatinase the Ki was determined by performing the analyses at several substrate concentrations. A plot of Ki (app) vs. [S] then gave the true Ki as the value of the y-axis intercept.

gelatinase A (72K form) = molecular target: T2, gelatinase A (72K form) (Homo sapiens, UniProt P08253); assay: Mouse pleural cavity assay (oral activity); assay type: in vivo; conditions: administered orally, around 25 μm/Kg
T2 sequence (P08253 110-660): T1 sequence (P08253 110-660)
Procedure: The oral activity of the compounds according to the invention may be determined using the mouse pleural cavity assay described below. This assay measures the ability of compounds of the invention when adminstered orally to inhibit a subsequent inoculation of gelatinase into the mouse pleural cavity.
A 2 ml solution of the test compound (for example around 25 μm/Kg) in an appropriate solvent (e.g. 50% polyethylene glycol (PG)) plus a variable proportion of dimethyl sulphoxide (DMSO) (if required) is administered orally. After an interval of up to 24 hrs, 0.4 ml of a mixture of an equal volume (2.2 ml) of the enzyme gelatinase A (72K form at a concentration of 20 nM) and radiolabelled [^14 C]-gelatin (at an approximate concentration of 10 μM i.e. 500 times molar excess) is injected into the pleural cavity and maintained at […]. […] The resulting TCA precipitate is then separated by centrifugation and radioactivity in each supernatant measured by scintillation counting. Results are expressed as a % inhibition of enzyme activity calculated by comparing the radioactivity measured for each test compound with a control value obtained by performing the same assay in the absence of a gelatinase inhibitor. […]

Collagenase = assay: Enzyme inhibition assay with fluorogenic peptide substrate, collagenase; assay type: biochemical; conditions: Ki (app) assumed to approximate true Ki
Procedure: as §1, §2, §3, §4

Stromelysin-1 = Stromelysin-1 (Homo sapiens, UniProt P08254); assay: Enzyme inhibition assay with fluorogenic peptide substrate, stromelysin-1; assay type: biochemical; conditions: Ki (app) assumed to approximate true Ki
Sequence of Stromelysin-1 (P08254 100-477, species assumed): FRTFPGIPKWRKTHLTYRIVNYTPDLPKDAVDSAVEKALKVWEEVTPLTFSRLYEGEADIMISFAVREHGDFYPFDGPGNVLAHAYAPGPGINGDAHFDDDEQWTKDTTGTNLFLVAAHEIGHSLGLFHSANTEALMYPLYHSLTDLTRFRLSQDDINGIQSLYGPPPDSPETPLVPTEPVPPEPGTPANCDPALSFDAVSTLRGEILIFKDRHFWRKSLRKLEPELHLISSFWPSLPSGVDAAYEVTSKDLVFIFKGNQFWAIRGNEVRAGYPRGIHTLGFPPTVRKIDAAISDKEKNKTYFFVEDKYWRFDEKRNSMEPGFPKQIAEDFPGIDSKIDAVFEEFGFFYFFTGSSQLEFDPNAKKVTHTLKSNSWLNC
Procedure: as §1, §2, §3, §4

Row | SMILES | Ki (Gelatinase-72KD) [nM] | % inhibition of enzyme activity (gelatinase A (72K form)) [%] | Ki (Collagenase) [nM] | Ki (Stromelysin-1) [nM]
1 | CC(C)(S)[C@@H](NC(=O)[C@H](CCCc1ccc(Cl)cc1)CC(=O)NO)C(N)=O [Example 3b), [4-(N-Hydroxyamino)-2(R)-[3-(4-chlorophenyl)propyl]-1-succinyl]-L-penicillamine amide] | 0.027 | 100 | 122 | 3.6
2 | CNC(=O)[C@H](NC(=O)[C@H](CCCc1ccc(Cl)cc1)CC(=O)NO)C(C)(C)S(C)(=O)=O [Example 4, {4-(N-Hydroxyamino)-2(R)-[3-(4-chlorophenyl)propyl]succinyl}-L-[S-(methyl)penicillaminesulphone]-N-methylamide] | 0.005 | – | 20.7 | 5.92
3 | CNC(=O)[C@H](NC(=O)[C@H](CCCc1ccc(Cl)cc1)CC(=O)NO)C(C)(C)SC [Example 3a), [4-(N-Hydroxyamino)-2(R)-[3-(4-chlorophenyl)propyl]succinyl]-L-[S-(methyl)penicillamine]-N-methylamide] | 0.005 | – | 26.3 | 5.3
